# Experimental data as given in paper PMC10583261 (CPT: Pharmacometrics & Systems Pharmacology, 2023).
# Several values for one entry are separate records, joined by “and”; a condition that tells them apart may be missing. Identical values can stand only once. Like-named read-outs stand apart in the source and are kept apart here.
# Assays:
# [1] = assay type: in vivo, human
# [2] = ref data on file, cited from earlier work
# [3] = weak-base compound; ref data on file; cited from earlier work
# [4] = final population PK model, healthy subjects
compound,measurement,setting,value
N#Cc1ccc(N2CCN(Cc3ccc(COc4cccc5c4CN([C@H]4CCC(=O)NC4=O)C5=O)cc3)CC2)c(F)c1 [mezigdomide],decrease in ka with high-fat meal,"[1]; fed vs fasted, model-estimated",~ 30%
same,increase in Tlag with high-fat meal,"[1]; fed vs fasted, model-estimated",~ 0.85 h
same,increase of relative oral bioavailability F with high-fat meal,"[1]; fed vs fasted, model-estimated",~ 30%
same,interindividual variability (IIV) of central volume of distribution V1,[1]; final population PK model,63% and 63.4%
same,interindividual variability (IIV) of clearance,[1]; final population PK model,40% and 39.9% and ~ 40%
same,interindividual variability (IIV) of intercompartmental clearance,[1]; final population PK model,26%
same,interindividual variability (IIV) of peripheral volume of distribution,[1]; final population PK model,26%
same,interoccasion variability (IOV) of absorption rate constant ka,[1]; final population PK model,65%
same,"V1pop, distribution volume of the central compartment",[1]; [4],440 L
same,"V2pop, distribution volume of the peripheral compartment",[1]; [4],243 L
same,dose-exposure relationship,"[1]; healthy subjects, 0.4–3.2 mg",linear
same,absorption rate constant,"[1]; population PK parameter, healthy subjects (abstract)",1.18 h⁻¹
same,decrease in relative oral bioavailability F with PPI co-administration,"[1]; rabeprazole vs no PPI, model-estimated",~ 64%
same,Solubility,[2]; pH 1,133 µg/mL
same,Solubility,[2]; pH 5,1 µg/mL
same,decrease of solubility from pH 1 to pH 5,[2],~ 100 fold
same,dissociation constant,[3],6
